The series in a line: Assay (IV) determination of solubility. Type of series: physicochemical. As for the experimental part: Assay (IV)—Determination of Solubility
The mimylin peptide was dissolved in water at ˜500 nmol/ml and mixed 1:1 with a series of buffers (100 mM glycylglycine pH 3.0, 100 mM glycylglycine pH 4.0, 100 mM glycylglycine pH 5.0, 100 mM bistrispropane pH 6.0, 100 mM bistrispropane pH 6.5, 100 mM bistrispropane pH 7.0, 100 mM bistrispropane pH 7.5, 100 mM bistrispropane pH 8.0).

≈ marks a conversion by molar mass, not a printed value. Numbered stars: 1 amine (or outer) side, 2 acyl side, 3 side chain; on linkers, the order of the positions; unused ones are H or OH. Peptide text beside a SMILES is read from it. * marks the point of attachment. C20 diacid = O=C(O)CCCCCCCCCCCCCCCCCCC(=O)*; C18 diacid = O=C(O)CCCCCCCCCCCCCCCCC(=O)*; γGlu = O=C(O)[C@H](CCC(=O)[*:2])N[*:1]

`CC(C)C[C@H](NC(=O)[C@H](CCC(=O)O)NC(=O)[C@H](Cc1cnc[nH]1)NC(=O)[C@H](CC(C)C)NC(=O)[C@H](CCC(=O)O)NC(=O)[C@H](C)NC(=O)[C@H](CO)NC(=O)[C@H](CC(C)C)NC(=O)[C@H](CCCNC(=N)N)NC(=O)CNC(=O)[C@H](CC(C)C)NC(=O)[C@@H](NC(=O)[C@H](C)NC(=O)[C@@H](NC(=O)[C@H](CO)NC(=O)[C@@H](NC(=O)[C@H](CCC(=O)O)NC(=O)[C@H](CO)NC(=O)[C@H](C)NC(=O)CC[C@H](NC(=O)CCCCCCCCCCCCCCCCC(=O)O)C(=O)O)C(C)C)[C@@H](C)O)C(C)C)C(=O)N[C@@H](C)C(=O)N[C@H](C(=O)N[C@@H](CC(C)C)C(=O)N1CCC[C@H]1C(=O)N[C@@H](CCCNC(=N)N)C(=O)N[C@H](C(=O)N[C@@H](CCC(=O)O)C(=O)N[C@H](C(=O)NCC(=O)N[C@@H](CO)C(=O)NCC(=O)N[C@@H](CO)C(=O)N1CCC[C@H]1C(N)=O)[C@@H](C)O)[C@@H](C)O)[C@@H](C)O` [compound 86, [N-terminal(C18 diacid-gGlu), des1, 5V, 9V, 30S, 31G]mimylin] ({C18 diacid-γGlu}-ASEVSTAVLGRLSAELHELATLPRTETGSGSP-NH2): the Solubility entry is “≧200 μM” (pH 3.0); “≧200 μM” (pH 4.0); “≧200 μM” (pH 5.0); “≧200 μM” (pH 6.5); “≧200 μM” (pH 7.0); “≧200 μM” (pH 7.5). Further, under “pH 8.0”, the Solubility entry is reported as “≧200 μM”. Also, the solubility (in general, the concentration that dissolves in the medium under given conditions) at 18 h (pH 6.0) was 38 µM (≈ 139 µg/mL).
In the case of `CC(C)C[C@H](NC(=O)[C@H](CCC(=O)O)NC(=O)[C@H](Cc1cnc[nH]1)NC(=O)[C@H](CC(C)C)NC(=O)[C@H](CCC(=O)O)NC(=O)[C@H](C)NC(=O)[C@H](CO)NC(=O)[C@H](CC(C)C)NC(=O)[C@H](CCCNC(=N)N)NC(=O)CNC(=O)[C@H](CC(C)C)NC(=O)[C@@H](NC(=O)[C@H](C)NC(=O)[C@@H](NC(=O)[C@H](CO)NC(=O)[C@H](CC(C)C)NC(=O)[C@H](CCC(=O)O)NC(=O)[C@@H]1CCCN1C(=O)[C@H](C)NC(=O)[C@H](CCC(=O)O)NC(=O)CCCCCCCCCCCCCCCCC(=O)O)[C@@H](C)O)C(C)C)C(=O)N[C@@H](C)C(=O)N[C@H](C(=O)N[C@@H](CC(C)C)C(=O)N1CCC[C@H]1C(=O)N[C@@H](CCCNC(=N)N)C(=O)N[C@H](C(=O)N[C@@H](CCC(=O)O)C(=O)N[C@H](C(=O)NCC(=O)N1CCC[C@H]1C(=O)N[C@@H](CCC(=O)O)C(=O)N[C@@H](CO)C(=O)N1CCC[C@H]1C(N)=O)[C@@H](C)O)[C@@H](C)O)[C@@H](C)O` [compound 29, [N-terminal(C18 diacid), 3P, 9V]mimylin] ({C18 diacid}-EAPELSTAVLGRLSAELHELATLPRTETGPESP-NH2), the Solubility entry is on record as “≧200 μM” (pH 3.0); “≧200 μM” (pH 4.0); “≧200 μM” (pH 5.0); “≧200 μM” (pH 6.0); “≧200 μM” (pH 6.5); “≧200 μM” (pH 7.0). Besides, the Solubility result runs as follows: (pH 7.5) “≧200 μM”; (pH 8.0) “≧200 μM”.
Take `CC(C)C[C@H](NC(=O)CNC(=O)[C@H](CO)NC(=O)[C@H](C)NC(=O)CC[C@H](NC(=O)CCCCCCCCCCCCCCCCCCC(=O)O)C(=O)O)C(=O)N[C@@H](CO)C(=O)N[C@H](C(=O)N[C@@H](C)C(=O)N[C@H](C(=O)N[C@@H](CC(C)C)C(=O)NCC(=O)N[C@@H](CCCNC(=N)N)C(=O)N[C@@H](CC(C)C)C(=O)N[C@@H](CO)C(=O)N[C@@H](CCC(N)=O)C(=O)N[C@@H](CCC(=O)O)C(=O)N[C@@H](CC(C)C)C(=O)N[C@@H](Cc1cnc[nH]1)C(=O)N[C@@H](CCC(=O)O)C(=O)N[C@@H](CC(C)C)C(=O)N[C@@H](CCC(N)=O)C(=O)N[C@H](C(=O)N[C@@H](Cc1ccc(O)cc1)C(=O)N1CCC[C@H]1C(=O)N[C@@H](CCCNC(=N)N)C(=O)N[C@H](C(=O)N[C@@H](CCC(=O)O)C(=O)N[C@H](C(=O)NCC(=O)N[C@@H](CO)C(=O)NCC(=O)N[C@H](C(=O)N[C@@H](Cc1ccc(O)cc1)C(N)=O)[C@@H](C)O)[C@@H](C)O)[C@@H](C)O)[C@@H](C)O)[C@@H](C)O)[C@@H](C)O` [compound 124, [N-terminal(C20 diacid-gGlu), des1, 4G, 9T, 15Q, 21Q, 23Y, 30S, 31G, 32T, 33Y]mimylin] ({C20 diacid-γGlu}-ASGLSTATLGRLSQELHELQTYPRTETGSGTY-NH2): the Solubility result reads like this: (pH 3.0) “≧200 μM”; (pH 4.0) “≧200 μM”; (pH 6.0) “≧200 μM”; (pH 6.5) “≧200 μM”; (pH 7.0) “≧200 μM”; (pH 7.5) “≧200 μM”. Moreover, the Solubility entry (pH 8.0) was “≧200 μM”. The solubility at 18 h (pH 5.0) is reported as 61 µM (≈ 237 µg/mL).
Turning to `CC(C)C[C@H](NC(=O)CNC(=O)[C@H](CO)NC(=O)[C@H](C)NC(=O)CC[C@H](NC(=O)CCCCCCCCCCCCCCCCCCC(=O)O)C(=O)O)C(=O)N[C@@H](CO)C(=O)N[C@H](C(=O)N[C@@H](C)C(=O)N[C@@H](C)C(=O)N[C@@H](CC(C)C)C(=O)NCC(=O)N[C@@H](CCCNC(=N)N)C(=O)N[C@@H](CC(C)C)C(=O)N[C@@H](CO)C(=O)N[C@@H](CCC(=O)O)C(=O)N[C@@H](CCC(=O)O)C(=O)N[C@@H](CC(C)C)C(=O)N[C@@H](Cc1cnc[nH]1)C(=O)N[C@@H](CCC(=O)O)C(=O)N[C@@H](CC(C)C)C(=O)N[C@@H](CCC(N)=O)C(=O)N[C@H](C(=O)N[C@@H](Cc1ccc(O)cc1)C(=O)N1CCC[C@H]1C(=O)N[C@@H](CCCNC(=N)N)C(=O)N[C@H](C(=O)N[C@@H](CCC(=O)O)C(=O)N[C@H](C(=O)NCC(=O)N[C@@H](CO)C(=O)NCC(=O)N[C@H](C(=O)N[C@@H](Cc1ccc(O)cc1)C(N)=O)[C@@H](C)O)[C@@H](C)O)[C@@H](C)O)[C@@H](C)O)[C@@H](C)O` [compound 113, [N-terminal(C20 diacid-gGlu), des1, 4G, 15E, 21Q, 23Y, 30S, 31G, 32T, 33Y]mimylin] ({C20 diacid-γGlu}-ASGLSTAALGRLSEELHELQTYPRTETGSGTY-NH2), the Solubility result (pH 3.0) was “≧200 μM”; the Solubility result (pH 6.0) is reported as “≧200 μM”; the Solubility entry (pH 6.5) is listed as “≧200 μM”; the Solubility entry (pH 7.0) is “≧200 μM”; the Solubility entry (pH 7.5) was “≧200 μM”; the Solubility result (pH 8.0) is listed as “≧200 μM”. Also, the solubility at 18 h was 195 µM (≈ 751 µg/mL) (pH 4.0) and 57 µM (≈ 219 µg/mL) (pH 5.0).

Source of the values: US9593149B2, “Amylin and calcitonin receptor agonist” (Novo Nordisk A/S, priority 2014, dated 2017).
